Test results taken from patent US20260285880A1, “SUBSTITUTED DIHYDROTHIENOPYRIMIDINE COMPOUND, PREPARATION METHOD THEREFOR, AND USE THEREOF” (SHANGHAI YIDI BIOTECHNOLOGY CO., LTD., priority 2023, published 2026).

biological target: Flpin-293-PDE4B2 cells (Homo sapiens, UniProt Q07343); test: cell-based; conditions: read-out: Cell Inhibition % @1 nM, 1 nM, Flpin-293-PDE4B2 cells
Sequence (Q07343 1-564 isoform Q07343-2): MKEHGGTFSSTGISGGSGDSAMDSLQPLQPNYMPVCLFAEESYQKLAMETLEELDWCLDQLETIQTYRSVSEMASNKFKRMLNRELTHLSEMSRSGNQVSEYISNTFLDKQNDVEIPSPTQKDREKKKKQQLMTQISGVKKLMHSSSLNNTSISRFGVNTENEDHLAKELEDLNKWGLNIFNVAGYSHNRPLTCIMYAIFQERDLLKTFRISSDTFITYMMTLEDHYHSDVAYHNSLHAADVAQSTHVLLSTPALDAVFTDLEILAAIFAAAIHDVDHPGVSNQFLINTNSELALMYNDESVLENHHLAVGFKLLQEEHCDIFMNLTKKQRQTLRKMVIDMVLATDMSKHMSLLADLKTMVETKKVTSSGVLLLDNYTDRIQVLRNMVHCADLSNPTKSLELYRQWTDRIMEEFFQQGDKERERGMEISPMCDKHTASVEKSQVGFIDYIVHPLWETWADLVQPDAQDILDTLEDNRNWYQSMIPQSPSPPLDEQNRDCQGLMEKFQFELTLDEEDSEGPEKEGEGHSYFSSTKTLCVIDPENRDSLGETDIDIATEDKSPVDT

Compound | inhibition at 0.001 µM
[O-][S+]1CCc2nc(N3CCc4cc(N5CC6C(C5)C6(F)F)ccc4C3)nc(NC3(CO)CCC3)c21 (stereo not drawn) [Compound 161] | 3.1%
CN(C)c1ccc2c(c1)CCN(c1nc3c(c(NC4(CO)CCC4)n1)[S+]([O-])CC3)C2 (stereo not drawn) [Compound 126] | 19.8%
[O-][S+]1CCc2nc(N3CCc4cc(N5CCC[C@H]5CO)ccc4C3)nc(NC3(CO)CCC3)c21 (stereo partly drawn) [Compound 132] | 16.2%
[O-][S+]1CCc2nc(N3CCc4cc(N5CC[C@@H](O)C5)ccc4C3)nc(NC3(CO)CCC3)c21 (stereo partly drawn) [Compound 130] | 11.8%
[O-][S+]1CCc2nc(N3CC[C@@H]4c5ccc(Cl)nc5OC[C@H]4C3)nc(NC3(CO)CCC3)c21 (stereo partly drawn) [Compound 119] | 14%
CC1(O)CCN(c2ccc3c(c2)CCN(c2nc4c(c(NC5(CO)CCC5)n2)[S+]([O-])CC4)C3)C1 (stereo not drawn) [Compound 175] | 6.9%
C[C@@H]1c2ccc(Br)cc2CCN1c1nc2c(c(NC3(CO)CCC3)n1)[S+]([O-])CC2 (stereo partly drawn) [Compound 124] | 8.7%
Cn1cc(Nc2nc(N3CCc4cc(N5CCCC5)ccc4C3)nc3c2[S+]([O-])CC3)cn1 (stereo not drawn) [Compound 168] | 6.54%
COc1nn(C)cc1Nc1nc(N2CCc3cc(N4CCCC4)ccc3[C@@H]2C)nc2c1[S+]([O-])CC2 (stereo partly drawn) [Compound 216] | 11.7%

same assay, conditions: read-out: Cell Inhibition % @10 nM, 10 nM, Flpin-293-PDE4B2 cells

Compound | inhibition at 0.01 µM
[O-][S+]1CCc2nc(N3CCc4cc(N5CC6C(C5)C6(F)F)ccc4C3)nc(NC3(CO)CCC3)c21 (stereo not drawn) [Compound 161] | 37.3%
CN(C)c1ccc2c(c1)CCN(c1nc3c(c(NC4(CO)CCC4)n1)[S+]([O-])CC3)C2 (stereo not drawn) [Compound 126] | 77.4%
[O-][S+]1CCc2nc(N3CCc4cc(N5CCC[C@H]5CO)ccc4C3)nc(NC3(CO)CCC3)c21 (stereo partly drawn) [Compound 132] | 78.6%
[O-][S+]1CCc2nc(N3CCc4cc(N5CC[C@@H](O)C5)ccc4C3)nc(NC3(CO)CCC3)c21 (stereo partly drawn) [Compound 130] | 57.9%
[O-][S+]1CCc2nc(N3CC[C@@H]4c5ccc(Cl)nc5OC[C@H]4C3)nc(NC3(CO)CCC3)c21 (stereo partly drawn) [Compound 119] | 55.1%
CC1(O)CCN(c2ccc3c(c2)CCN(c2nc4c(c(NC5(CO)CCC5)n2)[S+]([O-])CC4)C3)C1 (stereo not drawn) [Compound 175] | 59.4%
C[C@@H]1c2ccc(Br)cc2CCN1c1nc2c(c(NC3(CO)CCC3)n1)[S+]([O-])CC2 (stereo partly drawn) [Compound 124] | 42.6%
Cn1cc(Nc2nc(N3CCc4cc(N5CCCC5)ccc4C3)nc3c2[S+]([O-])CC3)cn1 (stereo not drawn) [Compound 168] | 46.9%
COc1nn(C)cc1Nc1nc(N2CCc3cc(N4CCCC4)ccc3[C@@H]2C)nc2c1[S+]([O-])CC2 (stereo partly drawn) [Compound 216] | 50.4%

same assay, conditions: read-out: Cell Inhibition % @100 nM, 100 nM, Flpin-293-PDE4B2 cells

Compound | inhibition at 0.1 µM
[O-][S+]1CCc2nc(N3CCc4cc(N5CC6C(C5)C6(F)F)ccc4C3)nc(NC3(CO)CCC3)c21 (stereo not drawn) [Compound 161] | 96.3%
CN(C)c1ccc2c(c1)CCN(c1nc3c(c(NC4(CO)CCC4)n1)[S+]([O-])CC3)C2 (stereo not drawn) [Compound 126] | 100%
[O-][S+]1CCc2nc(N3CCc4cc(N5CCC[C@H]5CO)ccc4C3)nc(NC3(CO)CCC3)c21 (stereo partly drawn) [Compound 132] | 102%
[O-][S+]1CCc2nc(N3CCc4cc(N5CC[C@@H](O)C5)ccc4C3)nc(NC3(CO)CCC3)c21 (stereo partly drawn) [Compound 130] | 100%
[O-][S+]1CCc2nc(N3CC[C@@H]4c5ccc(Cl)nc5OC[C@H]4C3)nc(NC3(CO)CCC3)c21 (stereo partly drawn) [Compound 119] | 96%
CC1(O)CCN(c2ccc3c(c2)CCN(c2nc4c(c(NC5(CO)CCC5)n2)[S+]([O-])CC4)C3)C1 (stereo not drawn) [Compound 175] | 98.4%
C[C@@H]1c2ccc(Br)cc2CCN1c1nc2c(c(NC3(CO)CCC3)n1)[S+]([O-])CC2 (stereo partly drawn) [Compound 124] | 97.3%
Cn1cc(Nc2nc(N3CCc4cc(N5CCCC5)ccc4C3)nc3c2[S+]([O-])CC3)cn1 (stereo not drawn) [Compound 168] | 98.6%
COc1nn(C)cc1Nc1nc(N2CCc3cc(N4CCCC4)ccc3[C@@H]2C)nc2c1[S+]([O-])CC2 (stereo partly drawn) [Compound 216] | 98.2%

biological target: PDE4B2 (Homo sapiens, UniProt Q07343); test: not given; conditions: read-out: PDE4B2 IC50; enzyme assay
Sequence (Q07343 1-564 isoform Q07343-2, species assumed): as the sequence (Q07343 1-564 isoform Q07343-2) above

Compound | IC50
[O-][S+]1CCc2nc(N3CCc4cc(N5CC6C(C5)C6(F)F)ccc4C3)nc(NC3(CO)CCC3)c21 (stereo not drawn) [Compound 161] | 0.67 nM
CN(C)c1ccc2c(c1)CCN(c1nc3c(c(NC4(CO)CCC4)n1)[S+]([O-])CC3)C2 (stereo not drawn) [Compound 126] | 0.951 nM
[O-][S+]1CCc2nc(N3CCc4cc(N5CCC[C@H]5CO)ccc4C3)nc(NC3(CO)CCC3)c21 (stereo partly drawn) [Compound 132] | 0.368 nM
[O-][S+]1CCc2nc(N3CCc4cc(N5CC[C@@H](O)C5)ccc4C3)nc(NC3(CO)CCC3)c21 (stereo partly drawn) [Compound 130] | 0.297 nM
[O-][S+]1CCc2nc(N3CC[C@@H]4c5ccc(Cl)nc5OC[C@H]4C3)nc(NC3(CO)CCC3)c21 (stereo partly drawn) [Compound 119] | 1.37 nM
CC1(O)CCN(c2ccc3c(c2)CCN(c2nc4c(c(NC5(CO)CCC5)n2)[S+]([O-])CC4)C3)C1 (stereo not drawn) [Compound 175] | 0.299 nM
C[C@@H]1c2ccc(Br)cc2CCN1c1nc2c(c(NC3(CO)CCC3)n1)[S+]([O-])CC2 (stereo partly drawn) [Compound 124] | 0.98 nM
Cn1cc(Nc2nc(N3CCc4cc(N5CCCC5)ccc4C3)nc3c2[S+]([O-])CC3)cn1 (stereo not drawn) [Compound 168] | 0.108 nM
COc1nn(C)cc1Nc1nc(N2CCc3cc(N4CCCC4)ccc3[C@@H]2C)nc2c1[S+]([O-])CC2 (stereo partly drawn) [Compound 216] | 0.227 nM

biological target: PDE4D2 (Homo sapiens, UniProt Q08499); test: PDE4D2 enzyme experiment (AMP-Glo); conditions: read-out: PDE4D2 IC50 Binding; enzyme assay
Sequence (Q08499 303-809 limits assumed): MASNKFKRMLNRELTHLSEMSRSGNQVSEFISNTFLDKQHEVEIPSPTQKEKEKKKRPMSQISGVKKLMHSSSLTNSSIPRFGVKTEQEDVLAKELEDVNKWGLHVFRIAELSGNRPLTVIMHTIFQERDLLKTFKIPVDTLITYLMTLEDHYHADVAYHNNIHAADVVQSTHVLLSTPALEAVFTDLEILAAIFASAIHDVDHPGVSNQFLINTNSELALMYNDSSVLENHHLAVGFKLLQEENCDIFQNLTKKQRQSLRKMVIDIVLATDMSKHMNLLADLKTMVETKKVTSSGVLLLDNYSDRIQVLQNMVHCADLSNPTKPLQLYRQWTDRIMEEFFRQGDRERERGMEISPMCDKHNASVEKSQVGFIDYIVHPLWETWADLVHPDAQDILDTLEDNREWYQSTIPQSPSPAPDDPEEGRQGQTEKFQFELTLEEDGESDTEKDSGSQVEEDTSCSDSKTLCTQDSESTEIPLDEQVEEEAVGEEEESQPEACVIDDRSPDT

Compound | IC50
[O-][S+]1CCc2nc(N3CCc4cc(N5CC6C(C5)C6(F)F)ccc4C3)nc(NC3(CO)CCC3)c21 (stereo not drawn) [Compound 161] | 0.824 nM
CN(C)c1ccc2c(c1)CCN(c1nc3c(c(NC4(CO)CCC4)n1)[S+]([O-])CC3)C2 (stereo not drawn) [Compound 126] | 1.64 nM
[O-][S+]1CCc2nc(N3CCc4cc(N5CCC[C@H]5CO)ccc4C3)nc(NC3(CO)CCC3)c21 (stereo partly drawn) [Compound 132] | 0.651 nM
[O-][S+]1CCc2nc(N3CCc4cc(N5CC[C@@H](O)C5)ccc4C3)nc(NC3(CO)CCC3)c21 (stereo partly drawn) [Compound 130] | 0.59 nM
[O-][S+]1CCc2nc(N3CC[C@@H]4c5ccc(Cl)nc5OC[C@H]4C3)nc(NC3(CO)CCC3)c21 (stereo partly drawn) [Compound 119] | 2.79 nM
CC1(O)CCN(c2ccc3c(c2)CCN(c2nc4c(c(NC5(CO)CCC5)n2)[S+]([O-])CC4)C3)C1 (stereo not drawn) [Compound 175] | 0.603 nM
C[C@@H]1c2ccc(Br)cc2CCN1c1nc2c(c(NC3(CO)CCC3)n1)[S+]([O-])CC2 (stereo partly drawn) [Compound 124] | 2.92 nM
Cn1cc(Nc2nc(N3CCc4cc(N5CCCC5)ccc4C3)nc3c2[S+]([O-])CC3)cn1 (stereo not drawn) [Compound 168] | 0.561 nM
COc1nn(C)cc1Nc1nc(N2CCc3cc(N4CCCC4)ccc3[C@@H]2C)nc2c1[S+]([O-])CC2 (stereo partly drawn) [Compound 216] | 0.75 nM
